Where two headings read alike, the source gives them in different places.
Assays:
[1] = Plasma stability study, mouse; assay type: in vitro ADME
Description: (§1) Briefly, plasma stability was assessed by incubating compounds in the presence of human (pooled) and mouse (pooled) plasma (Bioreclamation, Westbury, NY, USA). All chemicals and reagents including control compounds were purchased from commercial sources such as Sigma-Aldrich or Toronto Research Chemicals. Plasma incubations were conducted by placing plasma (95 μL) in a 96-well microtiter plate and warming to 37 °C for 5 min. The reaction was initiated with the addition of the test article (5 μL of 20 μM), totaling 100 μL in incubation volume. At 0, 15, 30, 60, and 120 min time points, the reactions were terminated with the addition of acetonitrile-containing carbutamide (as an internal standard). The terminated samples were then centrifuged at 2 °C to pellet the protein, and the supernatant was injected onto an LC–MS. The test article was monitored for loss over time and the t1/2 was determined.

[2] = biological target: 167 protein targets (human and rodent recombinant receptors and binding sites); assay: Eurofins SpectrumScreen selectivity panel
Description: The AGAL molecule had ≥50% inhibition of specific binding or activity with IC50 values > 10 µM for a range of human and rodent recombinant receptors and binding sites (e.g., calcium and potassium channels and various subtypes of adrenergic, bombesin, calcitonin, serotonin, acetylcholine, histamine, and glutamate receptors or transporters).
The AGAL molecule was tested for estimated inhibition potency (IC50) and/or inhibition constants (Ki) on 167 protein targets (Eurofins SpectrumScreen).

[3] = Plasma stability study, human; assay type: in vitro ADME
Description: as §1

P-gp = assay: Bidirectional permeability in Caco-2 cells; assay type: in vitro ADME; details: human, Caco-2, with LY335979 5 µM
Description: (§2) The Caco-2 cell culture and bidirectional permeability assays used in the study were adapted from previous studies at Takeda. Briefly, Caco-2 cells were obtained from American Type Culture Collection (ATCC) (Manassas, VA, USA) and were cultured in 175 cm^2 tissue culture T-flasks (Corning Life Sciences, Corning, NY, USA). For bidirectional permeability assays, cells were plated onto Costar 24-well culture plates (0.33 cm^2/well, […] (Corning Life Sciences, Corning, NY, USA) by adding 1 × 10^5 cells suspended in 0.2 mL of culture medium (Dulbecco’s modified Eagle’s medium [DMEM] with 0.1 mM non-essential amino acids, 2 mM L-glutamine, 4.5 g/L glucose, and 10% fetal bovine serum [FBS]) to the upper chamber of each well of the 24-well transwell plate. Cell-free culture medium (40 mL) was added to the lower chamber reservoir (Corning Life Sciences, Corning, NY, USA). The transwell plates were then incubated at 37 °C in an atmosphere of 5% CO2 for 25 days to ensure complete enterocyte-like differentiation of the cells, and the culture medium was changed every three to four days during the incubation period. Cell monolayers with transepithelial electrical resistance (TEER) values > 250 ohms × cm^2 were used for the bidirectional permeability assays.
(§3) All chemicals and reagents including control compounds were purchased from commercial sources such as Sigma-Aldrich or synthesized in house (pevonedistat and LY335979). Bidirectional transport studies were performed at 37 °C. Before each experiment, the confluent cell monolayers on transwell inserts were washed and equilibrated for 30 min with transport media (Hank’s Balanced Salt Solution [HBSS] containing 25 mM 4-(2-hydroxyethyl)-1-piperazineethanesulfonic acid [HEPES] and 10 mM glucose, pH 7.4 or 6.5). The bidirectional permeability of 5 µM of the cyclohexane derivative was assessed alone or in the presence of 5 µM LY335979, 5 µM K0143, or 10 µM Elacridar to inhibit P-gp, BCRP, and both efflux transporters, respectively. Additionally, the bi-directional permeability of 5 µM solutions of nadolol (low permeable control marker), minoxidil (high permeable marker), propranolol (high permeable marker), and pevonedistat (efflux transporter control) was also assessed. The experiment was initiated by adding a solution containing the test compounds and LY335979 to either the apical (for apical-to-basolateral [A-to-B] transport) or basolateral (for basolateral-to-apical [B-to-A] transport) compartment. Lucifer yellow (50 µM) was added to each donor chamber in the experiment to serve as a paracellular transport control and to monitor cell monolayer integrity. The apical volume was 0.2 mL and the basolateral volume was 1.0 mL. Bovine serum albumin (BSA, Sigma Aldrich) (5%) was added to the transport media on the receiver side to prevent non-specific binding of the test compound to the polystyrene well. After the addition of test compound into the donor side, […] of the receiving solution were withdrawn from the receiver side at 30 and 60 min. A […] of fresh transport media was immediately added to the receiver side at 30 and 60 min. The samples were placed into 96-well black plates (PerkinElmer Life Sciences, Boston, MA, USA) for fluorescence measurement (excitation at 450 nm and emission at 535 nm). After this measurement, the amounts of cyclohexane derivative and control compounds in each sample were quantified with liquid chromatography–mass spectrometry (LC–MS). The time course of drug transported across cell monolayers was analyzed to determine the time and rate of steady-state flux. The transport rate (total amount of drug present in the receiver chamber per unit time), Papp, and efflux ratio were calculated as described in Equations (4) and (5). […]

[4] = Bidirectional permeability in Caco-2 cells; assay type: in vitro ADME; details: human, Caco-2, 5 µM, alone
Description: as §2, §3

P-gp and BCRP = assay: Bidirectional permeability in Caco-2 cells; assay type: in vitro ADME; details: human, Caco-2, with Elacridar (GF918) 10 µM, 5 µM, + 10 µM Elacridar (GF918) (dual inhibitor of P-gp and BCRP)
Description: as §2, §3

Caco-2 cells = assay: Bidirectional permeability in Caco-2 cells; assay type: in vitro ADME
Description: as §2, §3

BCRP = assay: Bidirectional permeability in Caco-2 cells; assay type: in vitro ADME; details: human
Description: as §2, §3

[5] = 5 µM, + 5 µM LY335979 (P-gp inhibitor)
[6] = read-out: Ratio (B/A), efflux ratio
[7] = Caco-2, with KO143 5 µM, 5 µM, + 5 µM KO143 (BCRP inhibitor)

- Plasma Half-Life, t1/2 ([1]; 37 °C): 9.83 min
- parent remaining ([1]; 30 min post-incubation): 18%
- half-life at 1 µM ([1]; mouse, pooled plasma, 37 °C, read-out: Plasma Half-Life, t1/2): < 0.167 h
- IC50 ([2]; range of human and rodent recombinant receptors and binding sites, read-out: IC50 values for off-target receptors and binding sites): > 10 µM
- inhibition of specific binding or activity ([2]; selectivity panel, >160 proteins): ≥ 50%
- parent remaining ([3]; 30 min post-incubation): 93%
- half-life at 1 µM ([3]; pooled plasma, 37 °C, read-out: Plasma Half-Life, t1/2): 3.47 h
- efflux ratio at 60 min, 5 µM (P-gp; by P-gp inhibitor LY335979, read-out: reduction of the efflux ratio): 3
- Papp A→B at 60 min, 5 µM (P-gp; [5]): 2.5 nm/s
- Papp B→A at 60 min, 5 µM (P-gp; [5]): 9.5 nm/s
- efflux ratio at 60 min, 5 µM (P-gp; 5 µM, + 5 µM LY335979 (P-gp inhibitor), read-out: Ratio (B/A), efflux ratio): 3.9
- Papp A→B at 60 min, 5 µM [4]: 1.1 nm/s
- Papp B→A at 60 min, 5 µM [4]: 13.6 nm/s
- efflux ratio at 60 min, 5 µM [4, 6]: 12
- Papp A→B at 60 min, 5 µM (P-gp and BCRP): 2.5 nm/s
- Papp B→A at 60 min, 5 µM (P-gp and BCRP): 7.4 nm/s
- efflux ratio at 60 min, 5 µM (P-gp and BCRP; [6]): 2.9
- reduction of the efflux ratio (Caco-2 cells; by LY335979): 67%
- reduction of the efflux ratio (Caco-2 cells; by elacridar): 76%
- efflux ratio at 60 min, 5 µM (BCRP; Caco-2, with K0143 5 µM, by BCRP inhibitor K0143, read-out: reduction of the efflux ratio): 1.4
- Papp A→B at 60 min, 5 µM (BCRP; [7]): 1.5 nm/s
- Papp B→A at 60 min, 5 µM (BCRP; [7]): 13.1 nm/s
- efflux ratio at 60 min, 5 µM (BCRP; Caco-2, with KO143 5 µM, 5 µM, + 5 µM KO143 (BCRP inhibitor), read-out: Ratio (B/A), efflux ratio): 8.7
Structure (SMILES): O=C(CCCCCCCn1cc(CCCF)nn1)N1[C@@H]2[C@H](O)[C@@H](O)[C@@H](O)[C@@H](CO)[C@@H]21 [AGAL]

Reference: paper PMC10609273, “Radiosynthesis and Early Evaluation of a Positron Emission Tomography Imaging Probe [^18F]AGAL Targeting Alpha-Galactosidase A Enzyme for Fabry Disease” (Molecules, 2023)
